Starred links: 1 amine or outer side, 2 acyl side, 3 side chain; linkers in the order of their positions; H or OH if unused. Non-standard residues stand in square brackets, D forms with d. Residues, ends and D or L forms follow the SMILES beside them. *: point of attachment. dAla(cis-4-NHCOPyz-cHex) = N[C@H](C[C@H]1CC[C@@H](NC(=O)c2cnccn2)CC1)C(=O)O; X1 = O=C(N[C@H]1CC[C@@H](C[C@@H](N[*:1])C(=O)[*:2])CC1)c1ccccn1; X3 = O=C(N[C@H]1CC[C@H](C[C@@H](N[*:1])C(=O)[*:2])CC1)c1cnccn1; X9 = CN=C(NCCC[C@H](N[*:1])C(=O)[*:2])N(C)C; dPhe(4-Cl) = N[C@H](Cc1ccc(Cl)cc1)C(=O)O; Pyrimidin2yl(4,6-Me2) = Cc1cc(C)nc(*)n1; d2Nal = N[C@H](Cc1ccc2ccccc2c1)C(=O)O; Nicotinoyl(6-Me) = Cc1ccc(C(=O)*)cn1; Picolinoyl(6-Me) = Cc1cccc(C(=O)*)n1; Lys(iPr) = CC(C)NCCCC[C@H](N)C(=O)O; Orn(iPr) = CC(C)NCCC[C@H](N)C(=O)O; Benzoyl(4-OH) = O=C(c1ccc(O)cc1)*; aIle = CC[C@@H](C)[C@H](N)C(=O)O; d3Pal = N[C@H](Cc1cccnc1)C(=O)O; Isonicotinoyl = O=C(c1ccncc1)*; Nicotinoyl = O=C(c1cccnc1)*; Picolinoyl = O=C(c1ccccn1)*; Orn = NCCC[C@H](N)C(=O)O; Abu = CC[C@H](N)C(=O)O; X12 = O=C(c1ccncn1)*
The compounds below were run on anaesthesized rats (assay: wheal test, intradermal injection). Conditions: 10 ug peptide intradermally.
Assay type: in vivo, rat
Set-up: Wheal (wheal response): unit not given here
Procedure, shortened: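 Anaesthetized rats given intradermal injection of 10 ug peptide in 100 ul saline; area of the wheal calculated from its diameter.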

| SMILES | Wheal Area |
| --- | --- |
| CC(=O)N[C@H](Cc1ccc2ccccc2c1)C(=O)N[C@H](Cc1ccc(Cl)cc1)C(=O)N[C@H](Cc1cccnc1)C(=O)N[C@@H](CO)C(=O)N[C@@H](CCCCNC(=O)c1ccccn1)C(=O)N[C@H](C[C@H]1CC[C@@H](NC(=O)c2ccccn2)CC1)C(=O)N[C@@H](CC(C)C)C(=O)N[C@@H](CCCCNC(C)C)C(=O)N1CCC[C@H]1C(=O)N[C@H](C)C(N)=O [IV-4] (Ac-[d2Nal][dPhe(4-Cl)][d3Pal]SK(Picolinoyl)[X1]L[Lys(iPr)]P[dA]-NH2) | 123.0 ± 5.0 mm^2 /10 μg |
| CC[C@H](NC(=O)[C@@H](CCCCNC(=O)c1ccccn1)NC(=O)[C@H](CCCCNC(=O)c1ccc(O)cc1)NC(=O)[C@H](CO)NC(=O)[C@@H](Cc1cccnc1)NC(=O)[C@@H](Cc1ccc(Cl)cc1)NC(=O)[C@@H](Cc1ccc2ccccc2c1)NC(C)=O)C(=O)N[C@@H](CCCCNC(C)C)C(=O)N1CCC[C@H]1C(=O)N[C@H](C)C(N)=O [compound 26381] (Ac-[d2Nal][dPhe(4-Cl)][d3Pal]SK(Benzoyl(4-OH))[dK](Picolinoyl)[Abu][Lys(iPr)]P[dA]-NH2) | 95.1 ± 5.0 mm^2 /10 μg |
| CC[C@H](NC(=O)[C@@H](CCCCNC(=O)c1ccccn1)NC(=O)[C@H](CCCCNC(=O)c1ccccn1)NC(=O)[C@H](CO)NC(=O)[C@@H](Cc1cccnc1)NC(=O)[C@@H](Cc1ccc(Cl)cc1)NC(=O)[C@@H](Cc1ccc2ccccc2c1)NC(C)=O)C(=O)N[C@@H](CCCCNC(C)C)C(=O)N1CCC[C@H]1C(=O)N[C@H](C)C(N)=O [compound 25990] (Ac-[d2Nal][dPhe(4-Cl)][d3Pal]SK(Picolinoyl)[dK](Picolinoyl)[Abu][Lys(iPr)]P[dA]-NH2) | 91.0 ± 5.4 mm^2 /10 μg |
| CC(=O)N[C@H](Cc1ccc2ccccc2c1)C(=O)N[C@H](Cc1ccc(Cl)cc1)C(=O)N[C@H](Cc1cccnc1)C(=O)N[C@@H](CO)C(=O)N[C@@H](CCCCNC(=O)c1cccc(C)n1)C(=O)N[C@H](CCCCNC(=O)c1cccc(C)n1)C(=O)N[C@@H](CC(C)C)C(=O)N[C@@H](CCCCNC(C)C)C(=O)N1CCC[C@H]1C(=O)N[C@H](C)C(N)=O [compound 25808] (Ac-[d2Nal][dPhe(4-Cl)][d3Pal]SK(Picolinoyl(6-Me))[dK](Picolinoyl(6-Me))L[Lys(iPr)]P[dA]-NH2) | 106.2 ± 4.3 mm^2 /10 μg |
| CC(=O)N[C@H](Cc1ccc2ccccc2c1)C(=O)N[C@H](Cc1ccc(Cl)cc1)C(=O)N[C@H](Cc1cccnc1)C(=O)N[C@@H](CO)C(=O)N[C@@H](CCCCNC(=O)c1cccnc1)C(=O)N[C@H](C[C@H]1CC[C@@H](NC(=O)c2cnccn2)CC1)C(=O)N[C@@H](CC(C)C)C(=O)N[C@@H](CCCCNC(C)C)C(=O)N1CCC[C@H]1C(=O)N[C@H](C)C(N)=O [compound 25806] (Ac-[d2Nal][dPhe(4-Cl)][d3Pal]SK(Nicotinoyl)[dAla(cis-4-NHCOPyz-cHex)]L[Lys(iPr)]P[dA]-NH2) | 101.7 ± 5.0 mm^2 /10 μg |
| CC(=O)N[C@H](Cc1ccc2ccccc2c1)C(=O)N[C@H](Cc1ccc(Cl)cc1)C(=O)N[C@H](Cc1cccnc1)C(=O)N[C@@H](CO)C(=O)N[C@@H](CCCCNC(=O)c1ccccn1)C(=O)N[C@H](C[C@H]1CC[C@H](NC(=O)c2cnccn2)CC1)C(=O)N[C@@H](CC(C)C)C(=O)N[C@@H](CCCCNC(C)C)C(=O)N1CCC[C@H]1C(=O)N[C@H](C)C(N)=O [IV-5] (Ac-[d2Nal][dPhe(4-Cl)][d3Pal]SK(Picolinoyl)[X3]L[Lys(iPr)]P[dA]-NH2) | 106.3 ± 4.3 mm^2 /10 μg |
| CC(=O)N[C@H](Cc1ccc2ccccc2c1)C(=O)N[C@H](Cc1ccc(Cl)cc1)C(=O)N[C@H](Cc1cccnc1)C(=O)N[C@@H](CO)C(=O)N[C@@H](Cc1ccc(O)cc1)C(=O)N[C@H](CCCCNC(=O)c1ccccn1)C(=O)N[C@@H](CC(C)C)C(=O)N[C@@H](CCCNC(C)C)C(=O)N1CCC[C@H]1C(=O)N[C@H](C)C(N)=O [compound 26363] (Ac-[d2Nal][dPhe(4-Cl)][d3Pal]SY[dK](Picolinoyl)L[Orn(iPr)]P[dA]-NH2) | 113.2 ± 5.5 mm^2 /10 μg |
| CC(=O)N[C@H](Cc1ccc2ccccc2c1)C(=O)N[C@H](Cc1ccc(Cl)cc1)C(=O)N[C@H](Cc1cccnc1)C(=O)N[C@@H](CO)C(=O)N[C@@H](CCCCNC(=O)c1ccncn1)C(=O)N[C@H](CCCCNC(=O)c1ccncn1)C(=O)N[C@@H](CC(C)C)C(=O)N[C@@H](CCCCNC(C)C)C(=O)N1CCC[C@H]1C(=O)N[C@H](C)C(N)=O [compound 26322] (Ac-[d2Nal][dPhe(4-Cl)][d3Pal]SK(X12)[dK](X12)L[Lys(iPr)]P[dA]-NH2) | 130.2 ± 2.5 mm^2 /10 μg |
| CC(=O)N[C@H](Cc1ccc2ccccc2c1)C(=O)N[C@H](Cc1ccc(Cl)cc1)C(=O)N[C@H](Cc1cccnc1)C(=O)N[C@@H](CO)C(=O)N[C@@H](CCCCNC(=O)c1ccccn1)C(=O)N[C@H](CCCCNC(=O)c1ccccn1)C(=O)N[C@@H](C)C(=O)N[C@@H](CCCCNC(C)C)C(=O)N1CCC[C@H]1C(=O)N[C@H](C)C(N)=O [compound 26099] (Ac-[d2Nal][dPhe(4-Cl)][d3Pal]SK(Picolinoyl)[dK](Picolinoyl)A[Lys(iPr)]P[dA]-NH2) | 103.9 ± 3.7 mm^2 /10 μg |

Same assay, conditions: Table I; 10 ug peptide intradermally

| SMILES | Wheal |
| --- | --- |
| CC(=O)N[C@H](Cc1ccc2ccccc2c1)C(=O)N[C@H](Cc1ccc(Cl)cc1)C(=O)N[C@H](Cc1cccnc1)C(=O)N[C@@H](CO)C(=O)N[C@@H](CCCCNC(=O)c1cccnc1)C(=O)N[C@@H](CCCCNC(=O)c1cccnc1)C(=O)N[C@@H](CC(C)C)C(=O)N[C@@H](CCCCNC(C)C)C(=O)N1CCC[C@H]1C(=O)N[C@H](C)C(N)=O [compound 24934] (Ac-[d2Nal][dPhe(4-Cl)][d3Pal]SK(Nicotinoyl)K(Nicotinoyl)L[Lys(iPr)]P[dA]-NH2) | 123 ± 5.9 mm^2 /10 |
| CC(=O)N[C@H](Cc1ccc2ccccc2c1)C(=O)N[C@H](Cc1ccc(Cl)cc1)C(=O)N[C@H](Cc1cccnc1)C(=O)N[C@@H](CO)C(=O)N[C@@H](CCCNC(=N)N)C(=O)N[C@H](CCCCNC(=O)c1cccnc1)C(=O)N[C@@H](CC(C)C)C(=O)N[C@@H](CCCNC(=N)N)C(=O)N1CCC[C@H]1C(=O)N[C@H](C)C(N)=O [compound 24199] (Ac-[d2Nal][dPhe(4-Cl)][d3Pal]SR[dK](Nicotinoyl)LRP[dA]-NH2) | 146.8 mm^2 /10 |
| CN=C(NCCC[C@H](NC(=O)[C@H](CC(C)C)NC(=O)[C@@H](CCCCNC(=O)c1cccnc1)NC(=O)[C@H](CCCCNC(=O)c1cccnc1)NC(=O)[C@H](CO)NC(=O)[C@@H](Cc1cccnc1)NC(=O)[C@@H](Cc1ccc(Cl)cc1)NC(=O)[C@@H](Cc1ccc2ccccc2c1)NC(C)=O)C(=O)N1CCC[C@H]1C(=O)N[C@H](C)C(N)=O)N(C)C [compound 24987] (Ac-[d2Nal][dPhe(4-Cl)][d3Pal]SK(Nicotinoyl)[dK](Nicotinoyl)L[X9]P[dA]-NH2) | 150.9 ± 14.0 mm^2 /10 |
| CC(=O)N[C@H](Cc1ccc2ccccc2c1)C(=O)N[C@H](Cc1ccc(Cl)cc1)C(=O)N[C@H](Cc1cccnc1)C(=O)N[C@@H](CO)C(=O)N[C@@H](CCCCNC(=O)c1ccc(C)nc1)C(=O)N[C@H](CCCCNC(=O)c1ccc(C)nc1)C(=O)N[C@@H](CC(C)C)C(=O)N[C@@H](CCCCNC(C)C)C(=O)N1CCC[C@H]1C(=O)N[C@H](C)C(N)=O [compound 25386] (Ac-[d2Nal][dPhe(4-Cl)][d3Pal]SK(Nicotinoyl(6-Me))[dK](Nicotinoyl(6-Me))L[Lys(iPr)]P[dA]-NH2) | 126.1 mm^2 /10 |
| CC(=O)N[C@H](Cc1ccc2ccccc2c1)C(=O)N[C@H](Cc1ccc(Cl)cc1)C(=O)N[C@H](Cc1cccnc1)C(=O)N[C@@H](CO)C(=O)N[C@@H](CCCCNC(=O)c1ccncc1)C(=O)N[C@H](CCCCNC(=O)c1ccncc1)C(=O)N[C@@H](CC(C)C)C(=O)N[C@@H](CCCCNC(C)C)C(=O)N1CCC[C@H]1C(=O)N[C@H](C)C(N)=O [compound 25146] (Ac-[d2Nal][dPhe(4-Cl)][d3Pal]SK(Isonicotinoyl)[dK](Isonicotinoyl)L[Lys(iPr)]P[dA]-NH2) | 140.3 mm^2 /10 |
| CC(=O)N[C@H](Cc1ccc2ccccc2c1)C(=O)N[C@H](Cc1ccc(Cl)cc1)C(=O)N[C@H](Cc1ccc(O)cc1)C(=O)N[C@@H](CO)C(=O)N[C@@H](CCCNC(=N)N)C(=O)N[C@H](CCCCNC(=O)c1cccnc1)C(=O)N[C@@H](CC(C)C)C(=O)N[C@@H](CCCNC(=N)N)C(=O)N1CCC[C@H]1C(=O)N[C@H](C)C(N)=O [compound 24446] (Ac-[d2Nal][dPhe(4-Cl)][dY]SR[dK](Nicotinoyl)LRP[dA]-NH2) | 113.2 mm^2 /10 |
| CC(=O)N[C@H](Cc1ccc2ccccc2c1)C(=O)N[C@H](Cc1ccc(Cl)cc1)C(=O)N[C@H](Cc1cccnc1)C(=O)N[C@@H](CO)C(=O)N[C@@H](CCCCNC(=O)c1cccnc1)C(=O)N[C@H](CCCCNC(=O)c1cccnc1)C(=O)N[C@@H](CC(C)C)C(=O)N[C@@H](CCCNc1nc(C)cc(C)n1)C(=O)N1CCC[C@H]1C(=O)N[C@H](C)C(N)=O [compound 25143] (Ac-[d2Nal][dPhe(4-Cl)][d3Pal]SK(Nicotinoyl)[dK](Nicotinoyl)L[Orn](Pyrimidin2yl(4,6-Me2))P[dA]-NH2) | 113.6 mm^2 /10 |
| CC(=O)N[C@H](Cc1ccc2ccccc2c1)C(=O)N[C@H](Cc1ccc(Cl)cc1)C(=O)N[C@H](Cc1cccnc1)C(=O)N[C@@H](CO)C(=O)N[C@@H](CCCCNC(=O)c1cccnc1)C(=O)N[C@H](CCCCNC(=O)c1cccnc1)C(=O)N[C@@H](CC(C)C)C(=O)N[C@@H](CCCCNC(=O)c1cccnc1)C(=O)N1CCC[C@H]1C(=O)N[C@H](C)C(N)=O [compound 24596] (Ac-[d2Nal][dPhe(4-Cl)][d3Pal]SK(Nicotinoyl)[dK](Nicotinoyl)LK(Nicotinoyl)P[dA]-NH2) | 122.8 ± 5.7 mm^2 /10 |

Same assay, conditions: Table XIV and text, unit not given

| SMILES | Wheal (wheal response) |
| --- | --- |
| CC[C@@H](C)[C@H](NC(=O)[C@@H](CCCCNC(=O)c1ccccn1)NC(=O)[C@H](CCCCNC(=O)c1ccccn1)NC(=O)[C@H](CO)NC(=O)[C@@H](Cc1cccnc1)NC(=O)[C@@H](Cc1ccc(Cl)cc1)NC(=O)[C@@H](Cc1ccc2ccccc2c1)NC(C)=O)C(=O)N[C@@H](CCCNC(C)C)C(=O)N1CCC[C@H]1C(=O)N[C@H](C)C(N)=O [IBR 26178] (Ac-[d2Nal][dPhe(4-Cl)][d3Pal]SK(Picolinoyl)[dK](Picolinoyl)[aIle][Orn(iPr)]P[dA]-NH2) | 78.6±4.5 |
